System: KRAS G12V dependent lung adenocarcinoma cell line, NCI-H441
Test: Cellular pERK (Thr202/Tyr204) FRET/HTRF assay
Type: cell-based
Settings: NCI-H441 cells
Excerpt: “Ras” refers to a protein in the Ras superfamily of small GTPases, such as in the Ras subfamily. […] The Ras proteins play a critical role in the regulation of cell behaviors, including proliferation, differentiation, and survival. […] KRAS G12V, G12D, and G12S variants are common in human cancers and Ras inhibitors binding in or near the Switch II pocket may provide mutant binding selectivity. RAS mutations are known to be often associated with pancreatic, colorectal and non-small-cell lung carcinomas (Lone, A. M. et al. J. Am. Chem. Soc. 2011,133, 11665-74, which is entirely incorporated herein by reference; Dillon, M. B.; Bachovchin, D. A.; Brown, S. J.; Finn, M. G.; Rosen, H.; Cravatt, B. F.; Mowen, K. A. ACS Chem. Biol. 2012, 7, 1198-204, which is entirely incorporated herein by reference; Bachovchin, D. A.; Brown, S. J.; Rosen, H.; Cravatt, B. F. Nat. Biotechnol. 2009, 27, 387-94, Ostrem, J. M.; Peters, U.; Sos, M. L.; Wells, J. A.; Shokat, K. M. Nature 2013, 503, 548-551. Ryan M. B. and Corcoran R. B, Nat. Rev Clin Onco. 2018, 11, 709-720.). Ras proteins are key members in the Ras/Raf/Mitogen-activated protein kinase (MAPK) signaling pathway. This pathway regulates a wide variety of cellular processes, including proliferation, differentiation, apoptosis, and stress responses. One way to measure the impact of an inhibitor of Ras proteins is to measure downstream phosphorylation of proteins in the MAPK pathway. The MAPK pathway includes extracellular signal-regulated kinases named ERK1 and ERK2, which are serine-threonine kinases that regulate cellular signaling under both normal and oncogenic conditions. ERK expression and hyperactivation via phosphorylation plays a major role in cancer progression and are downstream of Ras proteins. The assay used for measuring the downstream impact of Ras inhibition is the use of a highly sensitive cell-based readout of ERK phosphorylation (pERK) specifically on Threonine (Thr) 202 and Tyrosine (Tyr) 204 in a KRAS G12V dependent lung adenocarcinoma cell line, NCI-H441 (ATCC Cat #HTB-174). The assay described herein is suitable for assessing inhibition of Ras and can be tailored for any of the predominant oncogenic mutations in any isoform of Ras (e.g., KRAS, HRAS, and NRAS) by changing the cell line.
pERK was measured using an advanced pERK assay designed for the robust and highly sensitive quantification of ERK phosphorylation on Thr202/Tyr204. This assay is intended for the simple, rapid, and direct detection of endogenous levels of ERK1/2 in cells, but only when ERK is phosphorylated at Thr202 and Tyr204 (Perkin Elmer Catalog #64AERPEH). pERK was detected in a FRET based sandwich assay format using 2 different specific antibodies, one labelled with Eu3+-Cryptate (donor) and the second with d2 (acceptor). When the dyes are in close proximity, the excitation of the donor with a light source (laser or flash lamp) triggers a Fluorescence Resonance Energy Transfer (FRET) towards the acceptor, which in turn fluoresces at a specific wavelength (665 nm). The specific signal modulates positively in proportion to p-ERK1/2 (Thr202/Tyr204). The simple mix-and-read protocol eliminates all wash steps for faster analysis and high-quality output. Briefly, cells were diluted to the desired concentration per well based on a growth curve showing ˜75% confluence within a 24-hour time period at no less than 95% viability. Cell suspension (24 μL) were added into each well of 384-well culture plate and maintained in 37° C. 5% CO2 incubator overnight prior to assay. All compounds were transferred to stock plates using TECAN (EVO200) liquid handler using DMSO as the solubilizing and dilution agent. Test compounds were transferred onto adherent cells using an Echo655 liquid handler. DMSO was employed as negative control. Cells were incubated with test compounds for 1 hr in a 37° C., 5% CO2 incubator following compound addition. […]

[1] = cellular pERK (Thr202/Tyr204) HTRF

Row | Compound | IC50 [1] | IC50 (Homo sapiens, NCI-H441, cellular pERK (Thr202/Tyr204) HTRF)
1 | [2H]C([2H])(Oc1nc(N2CCOC[C@H]3[C@H](F)[C@H]32)c2cc(Cl)c(-c3cc(N)cc4ccc(F)c(C#C)c34)c(F)c2n1)[C@@]12CCCN1C[C@H](F)C2 (atropisomer, axis not shown; (aS)) [Example 361, 4-((S)-6-chloro-8-fluoro-4-((1S,7S,8S)-8-fluoro-5-oxa-2-azabicyclo[5.1.0]octan-2-yl)-2-(((2R,7aS)-2-fluorotetrahydro-1H-pyrrolizin-7a(5H)-yl)methoxy-d2)quinazolin-7-yl)-5-ethynyl-6-fluoronaphthalen-2-amine] | 500 to 10000 nM | –
2 | [2H]C([2H])(Oc1nc(N2CCOC[C@H]3[C@H](F)[C@H]32)c2cc(C(F)(F)F)c(-c3ccc(F)c4sc(N)c(C#N)c34)c(F)c2n1)[C@@]12CCCN1C[C@H](F)C2 (atropisomer, axis not shown; (aS)) [Example 365, 2-amino-7-fluoro-4-((S)-8-fluoro-4-((1S,7S,8S)-8-fluoro-5-oxa-2-azabicyclo[5.1.0]octan-2-yl)-2-(((2R,7aS)-2-fluorotetrahydro-1H-pyrrolizin-7a(5H)-yl)methoxy-d2)-6-(trifluoromethyl)quinazolin-7-yl)benzo[b]thiophene-3-carbonitrile] | – | < 50 nM
3 | [2H]C([2H])(Oc1nc(N2CCOC[C@H]3[C@H](F)[C@H]32)c2cc(C(F)(F)F)c(-c3ccc(F)c4sc(N)c(C#N)c34)c(F)c2n1)[C@@]12CCCN1C[C@H](F)C2 (atropisomer, axis not shown; (aS)) [Example 390, 2-amino-7-fluoro-4-((R)-8-fluoro-4-((1S,7S,8S)-8-fluoro-5-oxa-2-azabicyclo[5.1.0]octan-2-yl)-2-(((2R,7aS)-2-fluorotetrahydro-1H-pyrrolizin-7a(5H)-yl)methoxy-d2)-6-(trifluoromethyl)quinazolin-7-yl)benzo[b]thiophene-3-carbonitrile] | < 50 nM | –
4 | [2H]C([2H])(Oc1nc(N2CCOC[C@H]3[C@H](F)[C@H]32)c2cc(F)c(-c3cc(N)cc4ccc(F)c(C#C)c34)c(F)c2n1)[C@@]12CCCN1C[C@H](F)C2 (atropisomer, axis not shown; (aS)) [Example 391, 4-((R)-6,8-difluoro-4-((1S,7S,8S)-8-fluoro-5-oxa-2-azabicyclo[5.1.0]octan-2-yl)-2-(((2R,7aS)-2-fluorotetrahydro-1H-pyrrolizin-7a(5H)-yl)methoxy-d2)quinazolin-7-yl)-5-ethynyl-6-fluoronaphthalen-2-amine] | < 50 nM | –
5 | [2H]C([2H])(Oc1nc(N2CCOC[C@H]3[C@H](F)[C@H]32)c2cc(F)c(-c3cc(N)cc4ccc(F)c(C#C)c34)c(F)c2n1)[C@@]12CCCN1C[C@H](F)C2 (atropisomer, axis not shown; (aS)) [Example 400, 4-((S)-6,8-difluoro-4-((1S,7S,8S)-8-fluoro-5-oxa-2-azabicyclo[5.1.0]octan-2-yl)-2-(((2R,7aS)-2-fluorotetrahydro-1H-pyrrolizin-7a(5H)-yl)methoxy-d2)quinazolin-7-yl)-5-ethynyl-6-fluoronaphthalen-2-amine] | 500 to 10000 nM | –
6 | [2H]C([2H])(Oc1nc(N2CCOC[C@H]3[C@H](Cl)[C@H]32)c2cc(C(F)(F)F)c(-c3ccc(F)c4sc(N)c(C#N)c34)c(F)c2n1)[C@@]12CCCN1C[C@H](F)C2 (atropisomer, axis not shown; (aS)) [Example 418, 2-amino-4-((R)-4-((1S,7S,8S)-8-chloro-5-oxa-2-azabicyclo[5.1.0]octan-2-yl)-8-fluoro-2-(((2R,7aS)-2-fluorotetrahydro-1H-pyrrolizin-7a(5H)-yl)methoxy-d2)-6-(trifluoromethyl)quinazolin-7-yl)-7-fluorobenzo[b]thiophene-3-carbonitrile] | 500 to 10000 nM | –

From patent US20250282799A1, “SUBSTITUTED PYRIDO[4,3-d]PYRIMIDINES AS KRAS MODULATORS” (Alterome Therapeutics, Inc., priority 2023, published 2025)
